Measured values as given in ChEMBL document CHEMBL4265943, “Design and synthesis of potent dual inhibitors of JAK2 and HDAC based on fusing the pharmacophores of XL019 and vorinostat” (Eur J Med Chem, 2018).

target: Tyrosine-protein kinase JAK2 (Homo sapiens, UniProt O60674); test: Inhibition of human JAK2 using poly(Glu:Tyr)(4:1) as substrate preincubated for 20 mins followed by [gamma33P]ATP addition measured after 120 mins by ion exchange filter paper method; details: not given
Sequence (O60674 whole entry): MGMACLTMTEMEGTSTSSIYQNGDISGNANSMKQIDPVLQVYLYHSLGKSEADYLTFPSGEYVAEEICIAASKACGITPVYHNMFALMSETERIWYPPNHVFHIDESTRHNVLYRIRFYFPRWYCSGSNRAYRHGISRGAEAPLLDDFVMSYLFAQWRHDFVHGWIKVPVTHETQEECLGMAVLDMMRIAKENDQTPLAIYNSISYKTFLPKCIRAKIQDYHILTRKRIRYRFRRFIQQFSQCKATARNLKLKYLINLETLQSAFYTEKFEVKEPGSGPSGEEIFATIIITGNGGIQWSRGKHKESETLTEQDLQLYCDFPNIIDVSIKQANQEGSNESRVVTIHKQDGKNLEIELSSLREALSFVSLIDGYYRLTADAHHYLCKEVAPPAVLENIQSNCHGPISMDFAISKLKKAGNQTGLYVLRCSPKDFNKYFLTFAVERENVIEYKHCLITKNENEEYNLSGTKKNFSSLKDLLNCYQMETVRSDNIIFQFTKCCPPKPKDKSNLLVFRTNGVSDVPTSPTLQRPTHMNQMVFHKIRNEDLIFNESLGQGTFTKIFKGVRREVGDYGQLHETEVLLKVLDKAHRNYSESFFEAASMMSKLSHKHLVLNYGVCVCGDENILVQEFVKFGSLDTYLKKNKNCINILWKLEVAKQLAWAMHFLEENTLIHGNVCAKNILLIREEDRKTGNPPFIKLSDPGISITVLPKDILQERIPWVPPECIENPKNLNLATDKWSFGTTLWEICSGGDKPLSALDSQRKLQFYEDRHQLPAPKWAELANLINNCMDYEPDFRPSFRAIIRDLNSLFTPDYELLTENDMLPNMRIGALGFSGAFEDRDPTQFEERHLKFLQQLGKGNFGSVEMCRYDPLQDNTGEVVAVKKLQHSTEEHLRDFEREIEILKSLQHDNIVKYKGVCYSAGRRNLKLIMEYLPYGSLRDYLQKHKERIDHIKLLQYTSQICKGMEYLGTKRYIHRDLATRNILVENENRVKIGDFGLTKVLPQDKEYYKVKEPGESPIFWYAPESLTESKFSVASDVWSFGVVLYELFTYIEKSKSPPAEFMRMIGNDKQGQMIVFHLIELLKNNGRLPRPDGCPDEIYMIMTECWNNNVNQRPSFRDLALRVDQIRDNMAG

IC50 [nM]	SMILES
23	CC(=O)Nc1ccc(-c2ccnc(Nc3ccc(OCCCCCCC(=O)NO)cc3)n2)cc1
3.6	CC(=O)Nc1ccc(-c2ccnc(Nc3cccc(OCCCCCCC(=O)NO)c3)n2)cc1

target: Histone deacetylase 1 (Homo sapiens, UniProt Q13547); test: Inhibition of HDAC1 (unknown origin) using Arg-His-Lys-Lys(Ac) as substrate preincubated with enzyme followed by substrate addition for 2 hrs and measured for 1.5 hrs at 15 mins time interval by fluorescence assay; details: not given
Sequence (Q13547 whole entry): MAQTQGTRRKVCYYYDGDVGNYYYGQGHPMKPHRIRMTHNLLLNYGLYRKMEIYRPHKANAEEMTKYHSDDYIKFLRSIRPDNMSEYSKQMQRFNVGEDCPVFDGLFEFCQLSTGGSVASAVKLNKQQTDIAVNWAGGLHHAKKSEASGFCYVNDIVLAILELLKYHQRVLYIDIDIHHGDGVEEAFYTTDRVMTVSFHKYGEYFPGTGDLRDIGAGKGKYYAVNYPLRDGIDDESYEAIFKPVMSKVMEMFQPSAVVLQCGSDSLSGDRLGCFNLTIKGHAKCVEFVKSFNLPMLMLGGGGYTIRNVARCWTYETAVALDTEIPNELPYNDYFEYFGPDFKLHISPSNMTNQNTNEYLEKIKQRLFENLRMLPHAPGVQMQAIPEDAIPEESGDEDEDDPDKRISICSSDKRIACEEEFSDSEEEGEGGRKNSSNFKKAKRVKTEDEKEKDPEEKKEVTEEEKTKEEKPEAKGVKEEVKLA

IC50 [nM]	SMILES
145	CC(=O)Nc1ccc(-c2ccnc(Nc3ccc(OCCCCCCC(=O)NO)cc3)n2)cc1
83	CC(=O)Nc1ccc(-c2ccnc(Nc3cccc(OCCCCCCC(=O)NO)c3)n2)cc1

target: T1, Protein deacetylase HDAC6 (Homo sapiens, UniProt Q9UBN7); test: Inhibition of HDAC6 (unknown origin) using Arg-His-Lys-Lys(Ac) as substrate preincubated with enzyme followed by substrate addition for 2 hrs and measured for 1.5 hrs at 15 mins time interval by fluorescence assay; details: not given
T1 sequence (Q9UBN7 whole entry): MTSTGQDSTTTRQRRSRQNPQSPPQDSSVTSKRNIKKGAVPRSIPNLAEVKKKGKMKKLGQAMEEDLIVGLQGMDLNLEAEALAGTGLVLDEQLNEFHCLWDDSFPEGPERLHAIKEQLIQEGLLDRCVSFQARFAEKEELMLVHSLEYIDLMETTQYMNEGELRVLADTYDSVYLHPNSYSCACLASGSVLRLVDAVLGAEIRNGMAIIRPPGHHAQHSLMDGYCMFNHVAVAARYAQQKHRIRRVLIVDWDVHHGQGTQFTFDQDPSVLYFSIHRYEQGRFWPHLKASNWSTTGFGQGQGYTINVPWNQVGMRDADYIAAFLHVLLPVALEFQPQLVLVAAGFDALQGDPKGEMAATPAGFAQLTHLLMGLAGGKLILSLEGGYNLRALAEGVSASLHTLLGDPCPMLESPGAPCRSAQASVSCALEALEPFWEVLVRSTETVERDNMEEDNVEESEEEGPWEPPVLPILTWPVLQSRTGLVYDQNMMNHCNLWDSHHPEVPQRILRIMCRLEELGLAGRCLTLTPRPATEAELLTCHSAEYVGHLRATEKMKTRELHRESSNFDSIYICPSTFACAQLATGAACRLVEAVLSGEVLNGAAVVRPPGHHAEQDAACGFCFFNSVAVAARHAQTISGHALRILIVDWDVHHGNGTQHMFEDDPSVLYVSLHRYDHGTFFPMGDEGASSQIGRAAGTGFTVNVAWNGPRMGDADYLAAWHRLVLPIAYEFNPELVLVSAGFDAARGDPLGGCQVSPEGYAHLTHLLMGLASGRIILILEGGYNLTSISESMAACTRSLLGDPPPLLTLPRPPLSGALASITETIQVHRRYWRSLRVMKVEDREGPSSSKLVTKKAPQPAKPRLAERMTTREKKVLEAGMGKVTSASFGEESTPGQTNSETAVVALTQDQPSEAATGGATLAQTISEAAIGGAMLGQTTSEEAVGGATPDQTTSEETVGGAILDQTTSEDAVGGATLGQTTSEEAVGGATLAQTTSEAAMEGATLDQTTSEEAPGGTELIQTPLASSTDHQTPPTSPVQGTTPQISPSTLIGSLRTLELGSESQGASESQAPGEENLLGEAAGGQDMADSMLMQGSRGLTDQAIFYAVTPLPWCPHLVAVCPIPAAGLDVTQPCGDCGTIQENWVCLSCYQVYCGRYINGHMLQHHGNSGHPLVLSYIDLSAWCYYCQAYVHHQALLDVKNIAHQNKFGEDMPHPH

IC50 [nM]	SMILES
3	CC(=O)Nc1ccc(-c2ccnc(Nc3ccc(OCCCCCCC(=O)NO)cc3)n2)cc1
1.8	CC(=O)Nc1ccc(-c2ccnc(Nc3cccc(OCCCCCCC(=O)NO)c3)n2)cc1

system: HCT-116; test: Antiproliferative activity against human HCT116 cells after 72 hrs by MTT assay; type: functional, cell-based; details: HCT-116, 72 h

IC50 [nM]	SMILES
990	CC(=O)Nc1ccc(-c2ccnc(Nc3ccc(OCCCCCCC(=O)NO)cc3)n2)cc1
660	CC(=O)Nc1ccc(-c2ccnc(Nc3cccc(OCCCCCCC(=O)NO)c3)n2)cc1

system: MDA-MB-231; test: Antiproliferative activity against human MDA-MB-231 cells after 72 hrs by MTT assay; type: functional, cell-based; details: MDA-MB-231, 72 h

IC50 [nM]	SMILES
1560	CC(=O)Nc1ccc(-c2ccnc(Nc3ccc(OCCCCCCC(=O)NO)cc3)n2)cc1
1760	CC(=O)Nc1ccc(-c2ccnc(Nc3cccc(OCCCCCCC(=O)NO)c3)n2)cc1

system: MCF7; test: Antiproliferative activity against human MCF7 cells after 72 hrs by MTT assay; type: functional, cell-based; details: MCF7, 72 h

IC50 [nM]	SMILES
810	CC(=O)Nc1ccc(-c2ccnc(Nc3ccc(OCCCCCCC(=O)NO)cc3)n2)cc1
2420	CC(=O)Nc1ccc(-c2ccnc(Nc3cccc(OCCCCCCC(=O)NO)c3)n2)cc1

system: PC-3; test: Antiproliferative activity against human PC3 cells after 72 hrs by MTT assay; type: functional, cell-based; details: PC-3, 72 h

IC50 [nM]	SMILES
1470	CC(=O)Nc1ccc(-c2ccnc(Nc3ccc(OCCCCCCC(=O)NO)cc3)n2)cc1
1890	CC(=O)Nc1ccc(-c2ccnc(Nc3cccc(OCCCCCCC(=O)NO)c3)n2)cc1

system: not listed separately; test: Antiproliferative activity against human AC10 cells after 72 hrs by MTT assay; type: cell-based; details: not given

SMILES	CC50 at 72 h [nM]
CC(=O)Nc1ccc(-c2ccnc(Nc3ccc(OCCCCCCC(=O)NO)cc3)n2)cc1	2390
CC(=O)Nc1ccc(-c2ccnc(Nc3cccc(OCCCCCCC(=O)NO)c3)n2)cc1	2990

system: not listed separately; test: Antiproliferative activity against mouse TAMH cells after 72 hrs by MTT assay; type: cell-based; details: not given

SMILES	CC50 at 72 h [nM]
CC(=O)Nc1ccc(-c2ccnc(Nc3ccc(OCCCCCCC(=O)NO)cc3)n2)cc1	3660
CC(=O)Nc1ccc(-c2ccnc(Nc3cccc(OCCCCCCC(=O)NO)c3)n2)cc1	7020

system: not listed separately; test: Selectivity index, ratio of CC50 for human AC10 cells to IC50 for human HCT116 cells; type: toxicity; details: AC10 cells (CC50) and HCT116 cells (IC50)

SMILES	selectivity ratio
CC(=O)Nc1ccc(-c2ccnc(Nc3ccc(OCCCCCCC(=O)NO)cc3)n2)cc1	2.41
CC(=O)Nc1ccc(-c2ccnc(Nc3cccc(OCCCCCCC(=O)NO)c3)n2)cc1	4.53

system: not listed separately; test: Selectivity index, ratio of CC50 for mouse TAMH cells to IC50 for human HCT116 cells; type: toxicity; details: TAMH cells (CC50) and HCT116 cells (IC50)

SMILES	selectivity ratio
CC(=O)Nc1ccc(-c2ccnc(Nc3ccc(OCCCCCCC(=O)NO)cc3)n2)cc1	3.7
CC(=O)Nc1ccc(-c2ccnc(Nc3cccc(OCCCCCCC(=O)NO)c3)n2)cc1	10.6

system: not listed separately; test: Selectivity index, ratio of CC50 for human AC10 cells to IC50 for human MDA-MB-231 cells; type: toxicity; details: AC10 cells (CC50) and MDA-MB-231 cells (IC50)

SMILES	selectivity ratio
CC(=O)Nc1ccc(-c2ccnc(Nc3ccc(OCCCCCCC(=O)NO)cc3)n2)cc1	1.53
CC(=O)Nc1ccc(-c2ccnc(Nc3cccc(OCCCCCCC(=O)NO)c3)n2)cc1	1.7

system: not listed separately; test: Selectivity index, ratio of CC50 for mouse TAMH cells to IC50 for human MDA-MB-231 cells; type: toxicity; details: TAMH cells (CC50) and MDA-MB-231 cells (IC50)

SMILES	selectivity ratio
CC(=O)Nc1ccc(-c2ccnc(Nc3ccc(OCCCCCCC(=O)NO)cc3)n2)cc1	2.35
CC(=O)Nc1ccc(-c2ccnc(Nc3cccc(OCCCCCCC(=O)NO)c3)n2)cc1	3.99

system: not listed separately; test: Selectivity index, ratio of CC50 for human AC10 cells to IC50 for human MCF7 cells; type: toxicity; details: AC10 cells (CC50) and MCF7 cells (IC50)

SMILES	selectivity ratio
CC(=O)Nc1ccc(-c2ccnc(Nc3ccc(OCCCCCCC(=O)NO)cc3)n2)cc1	2.95
CC(=O)Nc1ccc(-c2ccnc(Nc3cccc(OCCCCCCC(=O)NO)c3)n2)cc1	1.24

system: not listed separately; test: Selectivity index, ratio of CC50 for mouse TAMH cells to IC50 for human MCF7 cells; type: toxicity; details: TAMH cells (CC50) and MCF7 cells (IC50)

SMILES	selectivity ratio
CC(=O)Nc1ccc(-c2ccnc(Nc3ccc(OCCCCCCC(=O)NO)cc3)n2)cc1	4.52
CC(=O)Nc1ccc(-c2ccnc(Nc3cccc(OCCCCCCC(=O)NO)c3)n2)cc1	2.9

system: not listed separately; test: Selectivity index, ratio of CC50 for human AC10 cells to IC50 for human PC3 cells; type: toxicity; details: AC10 cells (CC50) and PC3 cells (IC50)

SMILES	selectivity ratio
CC(=O)Nc1ccc(-c2ccnc(Nc3ccc(OCCCCCCC(=O)NO)cc3)n2)cc1	1.63
CC(=O)Nc1ccc(-c2ccnc(Nc3cccc(OCCCCCCC(=O)NO)c3)n2)cc1	1.58

system: not listed separately; test: Selectivity index, ratio of CC50 for mouse TAMH cells to IC50 for human PC3 cells; type: toxicity; details: TAMH cells (CC50) and PC3 cells (IC50)

SMILES	selectivity ratio
CC(=O)Nc1ccc(-c2ccnc(Nc3ccc(OCCCCCCC(=O)NO)cc3)n2)cc1	2.49
CC(=O)Nc1ccc(-c2ccnc(Nc3cccc(OCCCCCCC(=O)NO)c3)n2)cc1	3.71

system: HEL 92.1.7; test: cells; type: functional, cell-based; details: Homo sapiens, HEL 92.1.7, 72 h
Description: Antiproliferative activity against human HEL 92.1.7 cells after 72 hrs by MTT assay

IC50 [nM]	SMILES
1510	CC(=O)Nc1ccc(-c2ccnc(Nc3ccc(OCCCCCCC(=O)NO)cc3)n2)cc1
970	CC(=O)Nc1ccc(-c2ccnc(Nc3cccc(OCCCCCCC(=O)NO)c3)n2)cc1

system: Jurkat; test: Antiproliferative activity against human Jurkat cells after 72 hrs by MTT assay; type: functional, cell-based; details: not given

IC50 [nM]	SMILES
1770	CC(=O)Nc1ccc(-c2ccnc(Nc3ccc(OCCCCCCC(=O)NO)cc3)n2)cc1
1060	CC(=O)Nc1ccc(-c2ccnc(Nc3cccc(OCCCCCCC(=O)NO)c3)n2)cc1

system: KMS-12-BM; test: Antiproliferative activity against human KMS-12-BM cells after 72 hrs by MTT assay; type: functional, cell-based; details: not given

SMILES	IC50 [nM]
CC(=O)Nc1ccc(-c2ccnc(Nc3ccc(OCCCCCCC(=O)NO)cc3)n2)cc1	100
CC(=O)Nc1ccc(-c2ccnc(Nc3cccc(OCCCCCCC(=O)NO)c3)n2)cc1	350

system: not listed separately; test: Antiproliferative activity against human XG6 cells after 72 hrs by MTT assay; type: functional, cell-based; details: XG6, 72 h

SMILES	IC50 [nM]
CC(=O)Nc1ccc(-c2ccnc(Nc3ccc(OCCCCCCC(=O)NO)cc3)n2)cc1	2080
CC(=O)Nc1ccc(-c2ccnc(Nc3cccc(OCCCCCCC(=O)NO)c3)n2)cc1	4690

system: not listed separately; test: Selectivity index, ratio of CC50 for human AC10 cells to IC50 for human HEL 92.1.7 cells; type: toxicity; details: AC10 cells (CC50) and HEL 92.1.7 cells (IC50)

SMILES	selectivity ratio
CC(=O)Nc1ccc(-c2ccnc(Nc3ccc(OCCCCCCC(=O)NO)cc3)n2)cc1	1.58
CC(=O)Nc1ccc(-c2ccnc(Nc3cccc(OCCCCCCC(=O)NO)c3)n2)cc1	3.08

system: not listed separately; test: Selectivity index, ratio of CC50 for mouse TAMH cells to IC50 for human HEL 92.1.7 cells; type: toxicity; details: TAMH cells (CC50) and HEL 92.1.7 cells (IC50)

SMILES	selectivity ratio
CC(=O)Nc1ccc(-c2ccnc(Nc3ccc(OCCCCCCC(=O)NO)cc3)n2)cc1	2.42
CC(=O)Nc1ccc(-c2ccnc(Nc3cccc(OCCCCCCC(=O)NO)c3)n2)cc1	7.24

system: not listed separately; test: Selectivity index, ratio of CC50 for human AC10 cells to IC50 for human Jurkat cells; type: toxicity; details: AC10 cells (CC50) and Jurkat cells (IC50)

SMILES	selectivity ratio
CC(=O)Nc1ccc(-c2ccnc(Nc3ccc(OCCCCCCC(=O)NO)cc3)n2)cc1	0.89
CC(=O)Nc1ccc(-c2ccnc(Nc3cccc(OCCCCCCC(=O)NO)c3)n2)cc1	2.92

system: not listed separately; test: Selectivity index, ratio of CC50 for mouse TAMH cells to IC50 for human Jurkat cells; type: toxicity; details: TAMH cells (CC50) and Jurkat cells (IC50)

SMILES	selectivity ratio
CC(=O)Nc1ccc(-c2ccnc(Nc3ccc(OCCCCCCC(=O)NO)cc3)n2)cc1	2.07
CC(=O)Nc1ccc(-c2ccnc(Nc3cccc(OCCCCCCC(=O)NO)c3)n2)cc1	6.65

system: not listed separately; test: Selectivity index, ratio of CC50 for human AC10 cells to IC50 for human KMS-12-BM cells; type: toxicity; details: AC10 cells (CC50) and KMS-12-BM cells (IC50)

SMILES	selectivity ratio
CC(=O)Nc1ccc(-c2ccnc(Nc3ccc(OCCCCCCC(=O)NO)cc3)n2)cc1	23.9
CC(=O)Nc1ccc(-c2ccnc(Nc3cccc(OCCCCCCC(=O)NO)c3)n2)cc1	8.54

system: not listed separately; test: Selectivity index, ratio of CC50 for mouse TAMH cells to IC50 for human KMS-12-BM cells; type: toxicity; details: TAMH cells (CC50) and KMS-12-BM cells (IC50)

SMILES	selectivity ratio
CC(=O)Nc1ccc(-c2ccnc(Nc3ccc(OCCCCCCC(=O)NO)cc3)n2)cc1	36.6
CC(=O)Nc1ccc(-c2ccnc(Nc3cccc(OCCCCCCC(=O)NO)c3)n2)cc1	20.1

system: not listed separately; test: Selectivity index, ratio of CC50 for human AC10 cells to IC50 for human XG6 cells; type: toxicity; details: AC10 cells (CC50) and XG6 cells (IC50)

SMILES	selectivity ratio
CC(=O)Nc1ccc(-c2ccnc(Nc3ccc(OCCCCCCC(=O)NO)cc3)n2)cc1	1.15
CC(=O)Nc1ccc(-c2ccnc(Nc3cccc(OCCCCCCC(=O)NO)c3)n2)cc1	0.64

system: not listed separately; test: Selectivity index, ratio of CC50 for mouse TAMH cells to IC50 for human XG6 cells; type: toxicity; details: TAMH cells (CC50) and XG6 cells (IC50)

SMILES	selectivity ratio
CC(=O)Nc1ccc(-c2ccnc(Nc3ccc(OCCCCCCC(=O)NO)cc3)n2)cc1	1.76
CC(=O)Nc1ccc(-c2ccnc(Nc3cccc(OCCCCCCC(=O)NO)c3)n2)cc1	1.5
